We go through twelve compounds from patent US20240239790A1, “7-Morpholino-1,6-Naphthyridin-5-yl Derivatives and Pharmaceutical Compositions Thereof Useful as DNA-PK Inhibitor” (adMare Therapeutics Society, priority 2021, published 2024).

Read-outs that look alike come from different tables or passages of the source.

For series [1], the target named is T1, DNA-PK phosphorylation at Serine 2056 (Homo sapiens, UniProt P78527).
T1 construct: FaDu cells were purchased from ATCC; host or cells: FaDu
Nature of the series: Cellular Assay for Inhibition of DNA-PK Phosphorylation at Serine 2056 in FaDu cells (sandwich ELISA, neocarzinostatin). Format: cell-based. Particulars: pSer2056 DNA-PK, Table 3. The essentials: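 FaDu cells pre-treated with compound (0.3% DMSO) for 1 h, then neocarzinostatin 1 μg/mL final added for 2 h to induce DSBs. Protein-normalised lysates read by sandwich ELISA for total and pSer2056 DNA-PK; % inhibition normalised between DMSO and NCS controls, IC50 from variable-slope log(inhibitor) fit.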

The subject of series [2] is pH2AX induction in HCT116 ATM-/- multicellular tumour spheroids. The experiment in a line: Prodrug Radiation Sensitization in Multicellular Tumour Spheroids, inhibition of pH2AX induction following radiation. Format: cell-based. As to conditions: Homo sapiens, HCT-116, 20 Gy. The procedure: Prodrug compounds were assayed to determine their potency in 3D multicellular spheroids in media maintained under 20% vs 5% oxygen. Multicellular tumour spheroids were grown to approximately 0.5 mm in diameter and irradiated with 20 Gy in combination with inhibitor test compounds to determine their potency using HCT 116 and FaDu cell lines. Experiments were carried out in 96 well plates containing 0.7 mls of MEM media containing 10% FBS and 10 mM glucose under 5% CO2 at 37° C. Following dilution of compounds 1:1000 from DMSO stocks, compounds were serially diluted from 10 μM down to 3.5 nM and 5-10 spheroids added. 96 well plates were constantly stirred to avoid spheroids settling during the course of the experiment. Endpoints were pDNA-PK (ser 2056) or pH2AX (ser 139) status in spheroid cryosections taken 1 or 2 hours following radiation and fixed immediately in formalin. Using tumour cell lines deficient in ATM improved the assay signal to noise and gH2AX readout. Using this assay prodrug activity could be compared in the more oxygenated outer spheroid layers versus less oxygenated hypoxic central cell layers.

The test system of a further series is FaDu cell line. The experiment in a line: Prodrug Activation in Hypoxic Stirred Tumour Cell Suspensions. Particulars: 10 μM, 4 hours.
Setting [3] is: 5% O2, inner layers, read-out: Prodrug 5% O2 Inner layers EC50.
The mark [4] stands for this setting: 5% O2, outer layers, read-out: Prodrug 5% O2 Outer layers EC50.
The mark [5] stands for this setting: 20% O2, outer layers, read-out: Prodrug 20% O2 Outer layers EC50.

With `Cn1c(CN(c2cnc3cc(N4CCOCC4)nc(OC4CCC(Nc5ncc(N6CCN(CC(F)F)CC6)cn5)CC4)c3c2)S(C)(=O)=O)cnc1[N+](=O)[O-]` (stereo not drawn) [LFA2048, N-[5-[4-[[5-[4-(2,2-difluoroethyl)piperazin-1-yl]pyrimidin-2-yl]amino]cyclohexoxy]-7-morpholino-1,6-naphthyridin-3-yl]-N-[(3-methyl-2-nitro-imidazol-4-yl)methyl]methanesulfonamide], in series [1], the 50% inhibitory concentration (IC50) was 10000 to 30000 nM. The EC50 in series [2] (setting [3]) fell in the range of 500 to 1000 nM; in series [2] (setting [4]), 1000 to 10000 nM; in series [2] (setting [5]), 500 to 1000 nM. In addition, the “Fraction of prodrug converted to active form, Hypoxic 0.2% O2” value (“Fraction … Hypoxic 0.2% O2” below) in the series with FaDu cell line is “B (B is 0.05 to 0.15)”. For the same compound, in the series with FaDu cell line, the “Fraction of prodrug converted to active form, Oxic 5% O2” value (“Fraction … Oxic 5% O2” below) is recorded as “D (D is 0 to 0.02)”.

As for `CC(Oc1cnc2cc(N3CCOCC3)nc(O[C@H]3CC[C@@H](Nc4ncc(OCCN5CCOCC5)cn4)CC3)c2c1)c1cnc([N+](=O)[O-])n1C` (stereo partly drawn) [LFA2049, N-[4-[[3-[1-(3-methyl-2-nitro-imidazol-4-yl)ethoxy]-7-morpholino-1,6-naphthyridin-5-yl]oxy]cyclohexyl]-5-(2-morpholinoethoxy)pyrimidin-2-amine], in series [1], the IC50 is 100 to 1000 nM. Further, the figures for the half-maximal effective concentration (EC50) in series [2] (setting [3]), in series [2] (setting [4]) and in series [2] (setting [5]) were 10 to 500 nM, 500 to 1000 nM and 1000 to 10000 nM, respectively. In addition, the “Fraction … Hypoxic 0.2% O2” value with FaDu cell line is “A (A is 0.15 to 1)”. Further, in the series on FaDu cell line, the “Fraction … Oxic 5% O2” value is on record as “B (B is 0.05 to 0.15)”.

`CC(c1cnn(C)c1[N+](=O)[O-])N(c1cnc2cc(N3CCOCC3)nc(OC3CCC(Nc4ccn5nccc5n4)CC3)c2c1)S(C)(=O)=O` (stereo not drawn) [LFA2050, N-[1-(1-methyl-5-nitro-pyrazol-4-yl)ethyl]-N-[7-morpholino-5-[4-(pyrazolo[1,5-a]pyrimidin-5-ylamino)cyclohexoxy]-1,6-naphthyridin-3-yl]methanesulfonamide]: the half-maximal inhibitory concentration (IC50) in series [1] fell in the range of 1000 to 10000 nM. The concentration for a half-maximal effect (EC50) in series [2] (setting [3]) fell in the range of 10 to 500 nM; in series [2] (setting [4]), 1000 to 10000 nM; in series [2] (setting [5]), 1000 to 10000 nM. Besides, in the series on FaDu cell line, the “Fraction … Hypoxic 0.2% O2” value was “B (B is 0.05 to 0.15)”. Besides, the “Fraction … Oxic 5% O2” value in the series with FaDu cell line is given as “B (B is 0.05 to 0.15)”.

On to `CC(c1cnc([N+](=O)[O-])n1C1CC1)N(c1cnc2cc(N3CCOCC3)nc(OC3CCC(Nc4ccn5nccc5n4)CC3)c2c1)S(C)(=O)=O` (stereo not drawn) [LFA2051, N-[1-(3-cyclopropyl-2-nitro-imidazol-4-yl)ethyl]-N-[7-morpholino-5-[4-(pyrazolo[1,5-a]pyrimidin-5-ylamino)cyclohexoxy]-1,6-naphthyridin-3-yl]methanesulfonamide], for which the concentration for half-maximal inhibition (IC50) in series [1] is 10000 to 30000 nM. Further, the results for the EC50 in series [2] (setting [3]), in series [2] (setting [4]) and in series [2] (setting [5]) were 10 to 500 nM, 1000 to 10000 nM and 1000 to 10000 nM, respectively. Moreover, the “Fraction … Hypoxic 0.2% O2” value in the series with FaDu cell line is reported as “A (A is 0.15 to 1)”. The “Fraction … Oxic 5% O2” value in the series on FaDu cell line is given as “D (D is 0 to 0.02)”.

`CC(c1cnn(C)c1[N+](=O)[O-])N(c1cnc2cc(N3CCOCC3)nc(O[C@H]3CC[C@@H](Nc4ncc(C#N)cn4)CC3)c2c1)S(C)(=O)=O` (stereo partly drawn) [LFA2052, N-[5-[4-[(5-cyanopyrimidin-2-yl)amino]cyclohexoxy]-7-morpholino-1,6-naphthyridin-3-yl]-N-[1-(1-methyl-5-nitro-pyrazol-4-yl)ethyl]methanesulfonamide]: the IC50 in series [1] is 1000 to 10000 nM. For the same compound, the concentration giving a half-maximal response (EC50) lay within 10 to 500 nM in series [2] (setting [3]), 500 to 1000 nM in series [2] (setting [4]) and 1000 to 10000 nM in series [2] (setting [5]). The “Fraction … Hypoxic 0.2% O2” value with FaDu cell line is “B (B is 0.05 to 0.15)”. Besides, in the series on FaDu cell line, the “Fraction … Oxic 5% O2” value is listed as “C (C is 0.02 to 0.05)”.

On to `CC(c1cnc([N+](=O)[O-])n1C)N(c1cnc2cc(N3CCOCC3)nc(O[C@H]3CC[C@@H](Nc4ncc(CN5CCOCC5)cn4)CC3)c2c1)S(C)(=O)=O` (stereo partly drawn) [LFA2053, N-[1-(3-methyl-2-nitro-imidazol-4-yl)ethyl]-N-[7-morpholino-5-[4-[[5-(morpholinomethyl)pyrimidin-2-yl]amino]cyclohexoxy]-1,6-naphthyridin-3-yl]methanesulfonamide], for which, in series [1], the IC50 is 10000 to 30000 nM. Besides, the values for the half-maximal effective concentration (EC50) in series [2] (setting [3]), in series [2] (setting [4]) and in series [2] (setting [5]) were 10 to 500 nM, 500 to 1000 nM and 1000 to 10000 nM, respectively. Further, the “Fraction … Hypoxic 0.2% O2” value with FaDu cell line was “B (B is 0.05 to 0.15)”. The “Fraction … Oxic 5% O2” value with FaDu cell line was “D (D is 0 to 0.02)”.

In series [1], `CC(c1cnc([N+](=O)[O-])n1C)N(c1cnc2cc(N3CCOCC3)nc(O[C@H]3CC[C@@H](Nc4ncc(OCCN5CCOCC5)cn4)CC3)c2c1)S(C)(=O)=O` (stereo partly drawn) [LFA2054, N-[1-(3-methyl-2-nitro-imidazol-4-yl)ethyl]-N-[7-morpholino-5-[4-[[5-(2-morpholinoethoxy)pyrimidin-2-yl]amino]cyclohexoxy]-1,6-naphthyridin-3-yl]methanesulfonamide] registered an IC50 of 10000 to 30000 nM. For the same compound, the concentration giving a half-maximal response (EC50) is 10 to 500 nM in series [2] (setting [3]), 500 to 1000 nM in series [2] (setting [4]) and 10000 to 100000 nM in series [2] (setting [5]). For the same compound, the “Fraction … Hypoxic 0.2% O2” value with FaDu cell line is “B (B is 0.05 to 0.15)”. For the same compound, in the series on FaDu cell line, the “Fraction … Oxic 5% O2” value is “D (D is 0 to 0.02)”.

For `CC(c1cnc([N+](=O)[O-])n1C1CC1)N(c1cnc2cc(N3CCOCC3)nc(O[C@H]3CC[C@@H](Nc4ncccn4)CC3)c2c1)S(C)(=O)=O` (stereo partly drawn) [LFA2055, N-[1-(3-cyclopropyl-2-nitro-imidazol-4-yl)ethyl]-N-[7-morpholino-5-[4-(pyrimidin-2-ylamino)cyclohexoxy]-1,6-naphthyridin-3-yl]methanesulfonamide], the 50% inhibitory concentration (IC50) in series [1] was in the range of 1000 to 10000 nM. The EC50 in series [2] (setting [3]) lay in the range of 10 to 500 nM; in series [2] (setting [4]), 10 to 500 nM; in series [2] (setting [5]) it was 1000 to 10000 nM. Besides, the “Fraction … Hypoxic 0.2% O2” value with FaDu cell line is “A (A is 0.15 to 1)”. Also, in the series with FaDu cell line, the “Fraction … Oxic 5% O2” value is “D (D is 0 to 0.02)”.

In turn, `CC(c1cnn(C)c1[N+](=O)[O-])N(c1cnc2cc(N3CCOCC3)nc(O[C@H]3CC[C@@H](Nc4ncccn4)CC3)c2c1)S(C)(=O)=O` (stereo partly drawn) [LFA2056, N-[1-(1-methyl-5-nitro-pyrazol-4-yl)ethyl]-N-[7-morpholino-5-[4-(pyrimidin-2-ylamino)cyclohexoxy]-1,6-naphthyridin-3-yl]methanesulfonamide] returned an IC50 in series [1] of 1000 to 10000 nM. Moreover, the figures for the 50% effective concentration (EC50) in series [2] (setting [3]), in series [2] (setting [4]) and in series [2] (setting [5]) were 10 to 500 nM, 10 to 500 nM and 1000 to 10000 nM, respectively. For the same compound, the “Fraction … Hypoxic 0.2% O2” value with FaDu cell line is “C (C is 0.02 to 0.05)”. Moreover, the “Fraction … Oxic 5% O2” value with FaDu cell line was “C (C is 0.02 to 0.05)”.

Regarding `Cn1ncc(CN(c2cnc3cc(N4CCOCC4)nc(O[C@H]4CC[C@@H](Nc5ncccn5)CC4)c3c2)S(C)(=O)=O)c1[N+](=O)[O-]` [LFA2057, N-[(1-methyl-5-nitro-pyrazol-4-yl)methyl]-N-[7-morpholino-5-[4-(pyrimidin-2-ylamino)cyclohexoxy]-1,6-naphthyridin-3-yl]methanesulfonamide], the IC50 in series [1] lay in the range of 1000 to 10000 nM. For the same compound, the figures for the EC50 in series [2] (setting [3]), in series [2] (setting [4]) and in series [2] (setting [5]) were 10 to 500 nM, 10 to 500 nM and 1000 to 10000 nM, respectively. Besides, the “Fraction … Hypoxic 0.2% O2” value in the series on FaDu cell line is given as “A (A is 0.15 to 1)”. In addition, the “Fraction … Oxic 5% O2” value in the series with FaDu cell line is given as “B (B is 0.05 to 0.15)”.

Compound `CS(=O)(=O)N(Cc1cnc([N+](=O)[O-])n1C1CC1)c1cnc2cc(N3CCOCC3)nc(O[C@H]3CC[C@@H](Nc4ncccn4)CC3)c2c1` [LFA2058, N-[(3-cyclopropyl-2-nitro-imidazol-4-yl)methyl]-N-[7-morpholino-5-[4-(pyrimidin-2-ylamino)cyclohexoxy]-1,6-naphthyridin-3-yl]methanesulfonamide] had a half-inhibitory concentration (IC50) in series [1] of 1000 to 10000 nM. The EC50 was 10 to 500 nM in series [2] (setting [3]), 10 to 500 nM in series [2] (setting [4]) and 1000 to 10000 nM in series [2] (setting [5]). Besides, the “Fraction … Hypoxic 0.2% O2” value in the series with FaDu cell line is on record as “B (B is 0.05 to 0.15)”. Besides, in the series with FaDu cell line, the “Fraction … Oxic 5% O2” value is given as “C (C is 0.02 to 0.05)”.

Regarding `CN1CCN(CCOc2cnc(N[C@H]3CC[C@@H](Oc4nc(N5CCOCC5)cc5ncc(N(Cc6cnc([N+](=O)[O-])n6C)S(C)(=O)=O)cc45)CC3)nc2)CC1` [LFA2059, N-[(3-methyl-2-nitro-imidazol-4-yl)methyl]-N-[5-[4-[[5-[2-(4-methylpiperazin-1-yl)ethoxy]pyrimidin-2-yl]amino]cyclohexoxy]-7-morpholino-1,6-naphthyridin-3-yl]methanesulfonamide], the IC50 in series [1] is 1000 to 10000 nM. The EC50 in series [2] (setting [3]), in series [2] (setting [4]) and in series [2] (setting [5]) was 1000 to 10000 nM in each case. Further, the “Fraction … Hypoxic 0.2% O2” value in the series with FaDu cell line was “B (B is 0.05 to 0.15)”. Besides, the “Fraction … Oxic 5% O2” value in the series with FaDu cell line is on record as “D (D is 0 to 0.02)”.
